Experimental data from ChEMBL document CHEMBL1201862, “PubChem BioAssay data set” (2004).
The source made the active and inactive calls.

What was measured:
[1] = target: Sphingosine 1-phosphate receptor 5 (Homo sapiens, UniProt Q9H228); experiment: Late stage counterscreen assay for S1P4 antagonists: Fluorescence dose response cell-based screening assay for antagonists of the Sphingosine 1-Phosphate Receptor 5 (S1P5). [Related pubchem assays (depositor defined):AID1510, AID1524, AID1692, AID1853, AID2332, AID489009, AID489017]; format: functional
[2] = target: Sphingosine 1-phosphate receptor 3 (Homo sapiens, UniProt Q99500); experiment: Late stage counterscreen assay for S1P4 antagonists: Fluorescence dose response cell-based screening assay for antagonists of the Sphingosine 1-Phosphate Receptor 3 (S1P3). [Related pubchem assays (depositor defined):AID1510, AID1524, AID1692, AID1853, AID2332, AID489009, AID489017]; format: functional
[3] = target: Sphingosine 1-phosphate receptor 1 (Homo sapiens, UniProt P21453); experiment: Late stage counterscreen assay for S1P4 antagonists: Fluorescence dose response cell-based screening assay for antagonists of the Sphingosine 1-Phosphate Receptor 1 (S1P1). [Related pubchem assays (depositor defined):AID1510, AID1524, AID1692, AID1853, AID2332, AID489009, AID489017]; format: functional
[4] = target: Sphingosine 1-phosphate receptor 2 (Homo sapiens, UniProt O95136); experiment: Late stage counterscreen assay for S1P4 antagonists: Fluorescence dose response cell-based screening assay for antagonists of the Sphingosine 1-Phosphate Receptor 2 (S1P2). [Related pubchem assays (depositor defined):AID1510, AID1524, AID1692, AID1853, AID2332, AID489009, AID489017]; format: functional
[5] = Late-stage results from the probe development effort to identify antagonists of the Sphingosine 1-Phosphate Receptor 4 (S1P4): luminescence-based cell-based dose response assay to determine cytotoxicity of antagonist compounds. [Related pubchem assays (depositor defined):AID1510, AID1524, AID1564, AID1692, AID1821, AID1853, AID2332, AID2346, AID2349, AID2350, AID2351, AID2354]; format: functional
Tumor necrosis factor = Tumor necrosis factor (Homo sapiens, UniProt P01375); experiment: TNFa-triggered NF-kB activation inhibitors, SAR follow-up, cell-based, revised (AID 2337); format: functional
[6] = target: Intestinal-type alkaline phosphatase (Mus musculus, UniProt P24822); experiment: PubChem AID 488874; format: functional
[7] = target: Nucleotide-binding oligomerization domain-containing protein 1 (Homo sapiens, UniProt Q9Y239); experiment: NOD1 signaling inhibitors, SAR follow-up, revised (AID 2333); format: functional
[8] = target: T1, Intestinal-type alkaline phosphatase (Homo sapiens, UniProt P09923); experiment: human intestinal alkaline phosphatase activators, dose response, biochemical, luminescence, uHTS hits (AID 463120); format: functional
[9] = target: Nucleotide-binding oligomerization domain-containing protein 2 (Homo sapiens, UniProt Q9HC29); experiment: PubChem AID 2334; format: functional
[10] = target: T1, Intestinal-type alkaline phosphatase; experiment: human IAP activators, dose response, biochemical, luminescent, uHTS hits, set 2 (AID 488817); format: functional;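 note: potency of activators that raise enzyme activity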
[11] = target: T2, Alkaline phosphatase, tissue-nonspecific isozyme (Homo sapiens, UniProt P05186); experiment: TNAP enzyme activators, dose response, selectivity assay for human IAP activator project, biochemical, TNAP isozyme, human IAP uHTS hits (AID 488886); format: functional;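 note: potency of compounds raising TNAP activity as a selectivity check on IAP activators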
T2 sequence (P05186 whole entry): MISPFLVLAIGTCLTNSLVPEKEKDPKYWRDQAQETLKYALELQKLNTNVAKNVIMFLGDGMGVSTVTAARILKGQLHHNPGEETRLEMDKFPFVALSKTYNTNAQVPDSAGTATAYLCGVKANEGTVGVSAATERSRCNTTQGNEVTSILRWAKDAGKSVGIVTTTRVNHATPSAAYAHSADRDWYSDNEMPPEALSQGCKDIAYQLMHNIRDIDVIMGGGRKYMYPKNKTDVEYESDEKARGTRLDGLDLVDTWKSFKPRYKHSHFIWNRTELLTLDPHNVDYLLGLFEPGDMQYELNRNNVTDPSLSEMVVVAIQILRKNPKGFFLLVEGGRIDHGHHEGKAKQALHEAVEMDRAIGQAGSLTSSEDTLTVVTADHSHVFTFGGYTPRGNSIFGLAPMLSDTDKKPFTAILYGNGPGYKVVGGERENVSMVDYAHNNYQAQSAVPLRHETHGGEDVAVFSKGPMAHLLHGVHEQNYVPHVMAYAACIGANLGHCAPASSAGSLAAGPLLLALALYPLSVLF

HEK293 = experiment: cells; conditions: Homo sapiens;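 note: cells exposed to compound for 14 hours overnight before viability readout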
[12] = target: T3, Tyrosine-protein phosphatase non-receptor type 7 (Homo sapiens, UniProt P35236); format: functional
T3 sequence (P35236 whole entry): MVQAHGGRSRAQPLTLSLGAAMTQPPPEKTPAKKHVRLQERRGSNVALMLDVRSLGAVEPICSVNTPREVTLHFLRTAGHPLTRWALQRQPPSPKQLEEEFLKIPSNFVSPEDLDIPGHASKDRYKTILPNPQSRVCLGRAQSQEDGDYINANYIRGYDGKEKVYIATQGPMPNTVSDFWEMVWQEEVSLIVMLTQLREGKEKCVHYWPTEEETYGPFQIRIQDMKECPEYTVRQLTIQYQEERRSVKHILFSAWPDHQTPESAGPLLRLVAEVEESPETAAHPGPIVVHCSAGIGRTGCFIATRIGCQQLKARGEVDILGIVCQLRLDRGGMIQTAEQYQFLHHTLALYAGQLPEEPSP

[13] = inhibitors of intracellular T. cruzi replication, confirmation, NIH3T3 host cells, beta-gal luminescence (AID 2044); format: functional, cell-based;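 note: intracellular parasites grown in NIH/3T3 mouse fibroblasts as host cells; luminescent beta-galactosidase reporter signal from transgenic T. cruzi replicating inside host cells; inhibitors lower the luminescence signal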
[14] = cytotoxicity toward NIH3T3 fibroblasts, dose response, counter-screen, cell-based, ATP luminescence, mouse fibroblasts (AID 2010); format: functional;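 note: cells exposed to compound for about 90 hours before reading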
[15] = target: T4, Tyrosine-protein phosphatase non-receptor type 22 (Homo sapiens, UniProt Q9Y2R2); format: functional
T4 sequence (Q9Y2R2 whole entry): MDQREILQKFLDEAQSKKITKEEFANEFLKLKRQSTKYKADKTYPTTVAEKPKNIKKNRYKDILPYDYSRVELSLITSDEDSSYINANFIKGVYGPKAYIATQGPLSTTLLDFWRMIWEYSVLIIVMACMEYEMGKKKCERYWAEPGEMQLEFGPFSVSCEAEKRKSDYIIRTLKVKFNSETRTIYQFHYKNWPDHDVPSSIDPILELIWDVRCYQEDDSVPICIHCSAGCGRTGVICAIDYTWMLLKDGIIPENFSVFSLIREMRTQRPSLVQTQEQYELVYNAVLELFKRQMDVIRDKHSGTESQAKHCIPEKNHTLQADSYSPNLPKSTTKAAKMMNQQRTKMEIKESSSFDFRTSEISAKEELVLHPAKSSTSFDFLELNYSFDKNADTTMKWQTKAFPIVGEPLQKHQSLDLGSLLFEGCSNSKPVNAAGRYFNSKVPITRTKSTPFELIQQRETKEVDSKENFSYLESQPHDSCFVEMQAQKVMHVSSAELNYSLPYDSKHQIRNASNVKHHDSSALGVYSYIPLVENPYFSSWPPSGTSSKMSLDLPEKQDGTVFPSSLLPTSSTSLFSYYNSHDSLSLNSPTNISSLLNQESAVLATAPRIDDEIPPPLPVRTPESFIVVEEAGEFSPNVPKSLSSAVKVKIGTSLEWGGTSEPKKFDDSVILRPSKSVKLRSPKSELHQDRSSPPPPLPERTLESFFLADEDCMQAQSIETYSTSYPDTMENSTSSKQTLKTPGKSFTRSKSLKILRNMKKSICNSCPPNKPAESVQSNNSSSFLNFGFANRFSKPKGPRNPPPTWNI

[16] = target: T4, Tyrosine-protein phosphatase non-receptor type 22; format: functional; remark: listed apart in the source
Galanin receptor type 3 = target: T5, Galanin receptor type 3 (Homo sapiens, UniProt O60755); experiment: Fluorescence-based cell-based primary high throughput dose response assay to identify antagonists of the Galanin Receptor 3 (GalR3).; format: functional
T5 sequence (O60755 whole entry): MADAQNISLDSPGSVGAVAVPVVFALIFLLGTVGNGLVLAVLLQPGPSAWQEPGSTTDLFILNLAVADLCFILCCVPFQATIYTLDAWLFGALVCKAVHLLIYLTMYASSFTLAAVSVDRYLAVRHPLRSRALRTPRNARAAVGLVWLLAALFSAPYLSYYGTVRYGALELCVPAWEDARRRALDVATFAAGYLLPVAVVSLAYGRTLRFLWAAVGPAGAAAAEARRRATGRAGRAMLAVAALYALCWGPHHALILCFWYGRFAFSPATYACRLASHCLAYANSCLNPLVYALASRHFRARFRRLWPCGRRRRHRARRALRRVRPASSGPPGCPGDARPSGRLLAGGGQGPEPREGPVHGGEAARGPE

cells = format: functional, cell-based; conditions: HEK-CNG
SUMO E1/E2 = SUMO E1/E2 (Homo sapiens, UniProt P63279+Q9UBE0+Q9UBT2); experiment: SAR analysis of SUMOylation using HTRF in an in-Vitro dose response assay. [Related pubchem assays (depositor defined):AID2006, AID2011, AID2018, AID2069, AID2658]; format: functional
[17] = target: T6, Delta-type opioid receptor (Homo sapiens, UniProt P41143); experiment: HTS Image-Based Screen for Antagonists of the DOR Receptor. [Related pubchem assays (depositor defined):AID1777, AID1785, AID1786, AID2133]; format: functional
Mu-type opioid receptor = Mu-type opioid receptor (Homo sapiens, UniProt P35372); experiment: HTS Image-Based Screen for Agonists of the MOR Receptor. [Related pubchem assays (depositor defined):AID1777, AID1785, AID1786, AID2133]; format: functional;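 note: imaging of beta-arrestin GFP recruitment into spots after receptor activation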
[18] = target: T6, Delta-type opioid receptor; experiment: HTS Image-Based Screen for Agonists of the DOR Receptor. [Related pubchem assays (depositor defined):AID1777, AID1786, AID2133]; format: functional
Mucolipin-3 = target: T7, Mucolipin-3 (Homo sapiens, UniProt Q8TDD5); experiment: Dose response cell-based high-throughput screening assay for agonists of the transient receptor potential channel ML3 (TRPML3). [Related pubchem assays: 1526, 1424, 1448 ]; format: functional
T7 sequence (Q8TDD5 whole entry): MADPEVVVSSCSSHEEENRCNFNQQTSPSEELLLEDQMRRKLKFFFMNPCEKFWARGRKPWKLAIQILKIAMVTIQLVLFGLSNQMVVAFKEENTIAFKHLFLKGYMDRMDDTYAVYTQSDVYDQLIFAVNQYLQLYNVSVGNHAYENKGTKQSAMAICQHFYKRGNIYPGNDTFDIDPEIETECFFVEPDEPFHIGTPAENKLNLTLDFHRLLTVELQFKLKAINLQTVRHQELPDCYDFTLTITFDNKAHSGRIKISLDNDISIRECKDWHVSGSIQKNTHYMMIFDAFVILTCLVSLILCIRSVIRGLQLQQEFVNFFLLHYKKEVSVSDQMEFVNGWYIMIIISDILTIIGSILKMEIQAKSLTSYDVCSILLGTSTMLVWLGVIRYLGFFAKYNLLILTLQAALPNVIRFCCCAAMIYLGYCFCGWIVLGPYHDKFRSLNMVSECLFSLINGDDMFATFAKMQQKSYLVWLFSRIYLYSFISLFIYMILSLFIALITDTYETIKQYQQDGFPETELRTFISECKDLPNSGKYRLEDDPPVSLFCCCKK

[19] = target: T8, Kappa-type opioid receptor (Homo sapiens, UniProt P41145); format: functional
[20] = target: T8, Kappa-type opioid receptor; format: functional; remark: listed apart in the source
Ion channel NompC = Ion channel NompC (Danio rerio, UniProt Q7T1G6); experiment: Fluorescence counterscreen assay for TRPML3 agonists: dose response cell-based high-throughput screening assay to identify agonists of the transient receptor potential channel N1 (TRPN1). [Related pubchem assays: 1526, 1424, 1448 ]; format: functional
[21] = Shn3 3'UTR reporter inhibitors, dose response, cell-based, Clone20 osteoblasts, firefly luciferase, cherry-picked (AID 624132); format: functional;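 note: firefly luciferase luminescence from reporter carrying the Shn3 3'UTR in osteoblasts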
[22] = HepG2 cell cytotoxicity, dose response, cytotoxicity control for Shn3 inhibitor project, CellTiter-Glo, cherry-picked (AID 624134); format: functional, cell-based
[23] = control 3'UTR Renilla luciferase suppression, dose response, counter-screen for Shn3 inhibitor project, cell-based, Clone20-Shn3RL, cherry-picked (AID 624133); format: functional

T6 sequence (P41143 whole entry): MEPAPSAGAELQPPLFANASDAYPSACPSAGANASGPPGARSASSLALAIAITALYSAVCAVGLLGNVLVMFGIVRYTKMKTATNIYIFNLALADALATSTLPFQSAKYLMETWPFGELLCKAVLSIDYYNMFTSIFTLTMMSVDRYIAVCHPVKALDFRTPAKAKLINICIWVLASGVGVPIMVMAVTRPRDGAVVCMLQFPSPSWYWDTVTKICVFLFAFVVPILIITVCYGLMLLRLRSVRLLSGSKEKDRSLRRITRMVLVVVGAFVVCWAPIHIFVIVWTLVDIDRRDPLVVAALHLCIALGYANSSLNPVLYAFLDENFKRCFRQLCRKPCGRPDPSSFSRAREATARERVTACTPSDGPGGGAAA
T1 sequence (P09923 whole entry, the tested form may be a part): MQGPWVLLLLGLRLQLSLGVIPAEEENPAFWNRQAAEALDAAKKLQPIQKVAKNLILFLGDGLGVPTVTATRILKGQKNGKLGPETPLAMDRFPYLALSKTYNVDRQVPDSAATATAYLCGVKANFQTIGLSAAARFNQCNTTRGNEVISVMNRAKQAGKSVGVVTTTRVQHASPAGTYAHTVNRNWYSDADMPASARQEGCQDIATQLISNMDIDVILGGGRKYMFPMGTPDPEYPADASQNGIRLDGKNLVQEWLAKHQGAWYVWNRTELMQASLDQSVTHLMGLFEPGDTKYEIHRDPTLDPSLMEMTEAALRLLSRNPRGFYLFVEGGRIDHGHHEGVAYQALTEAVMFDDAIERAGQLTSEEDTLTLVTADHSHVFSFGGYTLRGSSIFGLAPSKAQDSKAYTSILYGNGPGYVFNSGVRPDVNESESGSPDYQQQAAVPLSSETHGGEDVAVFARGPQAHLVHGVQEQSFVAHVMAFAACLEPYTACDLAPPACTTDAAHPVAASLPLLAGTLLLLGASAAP
T8 sequence (P41145 whole entry): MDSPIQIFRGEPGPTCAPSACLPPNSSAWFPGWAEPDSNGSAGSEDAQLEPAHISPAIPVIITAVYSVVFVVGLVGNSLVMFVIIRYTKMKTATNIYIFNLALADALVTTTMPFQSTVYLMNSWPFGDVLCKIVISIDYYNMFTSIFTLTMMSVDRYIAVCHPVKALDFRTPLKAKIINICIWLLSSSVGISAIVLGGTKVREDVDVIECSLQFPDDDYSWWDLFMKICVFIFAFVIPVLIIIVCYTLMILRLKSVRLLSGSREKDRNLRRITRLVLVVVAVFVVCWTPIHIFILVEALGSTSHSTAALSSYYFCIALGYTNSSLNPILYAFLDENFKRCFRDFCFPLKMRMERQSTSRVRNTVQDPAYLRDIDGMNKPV
Chain of Tumor necrosis factor (P01375 whole entry): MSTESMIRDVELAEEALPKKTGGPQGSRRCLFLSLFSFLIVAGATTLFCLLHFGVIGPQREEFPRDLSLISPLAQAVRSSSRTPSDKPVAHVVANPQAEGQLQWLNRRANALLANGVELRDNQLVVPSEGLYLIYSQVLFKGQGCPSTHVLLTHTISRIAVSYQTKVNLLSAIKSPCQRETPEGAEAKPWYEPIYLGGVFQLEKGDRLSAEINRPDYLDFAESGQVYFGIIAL
Chain of Ion channel NompC (Q7T1G6 whole entry): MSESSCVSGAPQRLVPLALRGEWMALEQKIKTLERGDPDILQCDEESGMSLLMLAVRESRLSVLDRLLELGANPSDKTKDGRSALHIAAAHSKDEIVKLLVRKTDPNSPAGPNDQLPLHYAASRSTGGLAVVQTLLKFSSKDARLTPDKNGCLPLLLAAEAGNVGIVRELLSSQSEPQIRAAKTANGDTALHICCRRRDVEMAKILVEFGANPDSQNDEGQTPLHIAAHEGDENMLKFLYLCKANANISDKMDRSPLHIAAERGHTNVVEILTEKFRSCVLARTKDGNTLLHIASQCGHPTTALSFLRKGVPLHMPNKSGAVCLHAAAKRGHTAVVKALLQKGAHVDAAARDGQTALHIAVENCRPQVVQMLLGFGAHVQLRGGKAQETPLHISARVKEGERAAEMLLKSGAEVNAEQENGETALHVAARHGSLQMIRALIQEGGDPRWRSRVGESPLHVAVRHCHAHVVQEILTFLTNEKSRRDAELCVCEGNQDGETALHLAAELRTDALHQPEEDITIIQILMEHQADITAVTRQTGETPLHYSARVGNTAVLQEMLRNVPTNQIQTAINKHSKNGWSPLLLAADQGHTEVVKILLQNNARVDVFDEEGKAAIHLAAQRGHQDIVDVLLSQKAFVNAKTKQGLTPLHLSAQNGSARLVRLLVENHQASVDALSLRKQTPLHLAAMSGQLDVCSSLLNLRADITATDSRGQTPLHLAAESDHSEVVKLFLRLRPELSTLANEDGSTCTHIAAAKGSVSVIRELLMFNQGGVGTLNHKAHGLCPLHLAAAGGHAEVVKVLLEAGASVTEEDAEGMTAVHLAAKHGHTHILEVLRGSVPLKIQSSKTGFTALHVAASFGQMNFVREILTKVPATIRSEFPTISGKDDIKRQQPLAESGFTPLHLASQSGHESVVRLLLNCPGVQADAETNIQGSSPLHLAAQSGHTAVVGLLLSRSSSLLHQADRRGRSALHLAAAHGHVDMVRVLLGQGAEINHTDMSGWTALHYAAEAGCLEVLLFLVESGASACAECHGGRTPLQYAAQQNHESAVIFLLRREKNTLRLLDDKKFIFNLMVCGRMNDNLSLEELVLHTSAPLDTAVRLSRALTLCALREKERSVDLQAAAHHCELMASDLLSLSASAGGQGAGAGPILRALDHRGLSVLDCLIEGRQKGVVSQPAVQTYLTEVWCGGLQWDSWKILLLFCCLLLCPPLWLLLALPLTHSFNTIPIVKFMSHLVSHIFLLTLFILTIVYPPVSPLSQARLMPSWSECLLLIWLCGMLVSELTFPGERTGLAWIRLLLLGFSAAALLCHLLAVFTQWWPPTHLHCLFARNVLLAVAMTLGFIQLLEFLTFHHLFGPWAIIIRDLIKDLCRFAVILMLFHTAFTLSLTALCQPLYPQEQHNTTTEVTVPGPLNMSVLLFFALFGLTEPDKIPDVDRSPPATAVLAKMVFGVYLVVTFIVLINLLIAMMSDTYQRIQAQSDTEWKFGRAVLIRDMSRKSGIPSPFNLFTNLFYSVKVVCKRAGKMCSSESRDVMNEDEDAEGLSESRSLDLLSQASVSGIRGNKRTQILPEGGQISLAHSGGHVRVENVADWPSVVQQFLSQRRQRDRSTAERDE
Chain of SUMO E1/E2 (Q9UBE0 whole entry): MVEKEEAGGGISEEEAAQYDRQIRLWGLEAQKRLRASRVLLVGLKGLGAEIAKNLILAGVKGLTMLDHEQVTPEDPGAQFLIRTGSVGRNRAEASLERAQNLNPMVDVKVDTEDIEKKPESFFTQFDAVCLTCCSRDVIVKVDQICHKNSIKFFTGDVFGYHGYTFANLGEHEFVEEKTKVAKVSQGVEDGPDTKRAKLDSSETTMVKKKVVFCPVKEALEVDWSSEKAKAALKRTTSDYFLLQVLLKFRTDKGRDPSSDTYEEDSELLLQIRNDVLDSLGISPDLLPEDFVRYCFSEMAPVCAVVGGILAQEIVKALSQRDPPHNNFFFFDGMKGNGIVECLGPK
Chain of SUMO E1/E2 (Q9UBT2 whole entry): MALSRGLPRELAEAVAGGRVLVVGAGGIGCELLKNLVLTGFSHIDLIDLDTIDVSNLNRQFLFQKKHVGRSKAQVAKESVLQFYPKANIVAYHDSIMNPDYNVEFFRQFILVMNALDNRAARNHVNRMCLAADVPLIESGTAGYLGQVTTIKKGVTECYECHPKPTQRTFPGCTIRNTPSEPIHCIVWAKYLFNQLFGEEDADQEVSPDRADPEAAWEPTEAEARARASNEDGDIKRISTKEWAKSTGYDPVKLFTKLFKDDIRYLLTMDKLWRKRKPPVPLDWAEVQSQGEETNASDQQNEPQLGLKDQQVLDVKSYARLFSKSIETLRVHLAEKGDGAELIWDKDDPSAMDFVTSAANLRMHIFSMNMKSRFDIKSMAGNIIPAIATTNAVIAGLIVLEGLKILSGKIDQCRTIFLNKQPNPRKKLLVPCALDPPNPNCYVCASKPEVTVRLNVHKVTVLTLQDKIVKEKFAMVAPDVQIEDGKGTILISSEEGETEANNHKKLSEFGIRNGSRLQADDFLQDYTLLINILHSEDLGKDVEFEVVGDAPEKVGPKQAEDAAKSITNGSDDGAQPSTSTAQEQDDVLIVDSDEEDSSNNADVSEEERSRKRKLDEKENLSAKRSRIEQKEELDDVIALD
Chain of SUMO E1/E2 (P63279 whole entry): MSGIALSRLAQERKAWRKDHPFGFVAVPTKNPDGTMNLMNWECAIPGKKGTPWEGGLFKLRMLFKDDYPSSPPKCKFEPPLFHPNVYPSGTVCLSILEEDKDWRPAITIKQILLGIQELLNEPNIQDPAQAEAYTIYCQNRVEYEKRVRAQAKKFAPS
Chain of Sphingosine 1-phosphate receptor 5 (Q9H228 whole entry): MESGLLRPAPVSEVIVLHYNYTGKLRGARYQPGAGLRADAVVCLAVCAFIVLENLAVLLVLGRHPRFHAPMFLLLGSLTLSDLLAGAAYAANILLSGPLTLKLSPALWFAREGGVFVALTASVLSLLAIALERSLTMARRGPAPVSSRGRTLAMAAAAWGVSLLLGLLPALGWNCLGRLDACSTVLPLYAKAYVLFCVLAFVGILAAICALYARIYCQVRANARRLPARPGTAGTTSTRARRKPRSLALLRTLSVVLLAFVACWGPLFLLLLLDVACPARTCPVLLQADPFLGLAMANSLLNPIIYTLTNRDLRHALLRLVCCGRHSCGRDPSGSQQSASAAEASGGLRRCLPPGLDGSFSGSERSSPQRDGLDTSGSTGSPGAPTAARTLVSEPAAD

CCc1cccc(CC)c1NC(=O)c1ccc(-c2cc(Cl)ccc2Cl)o1
IC50 [1]: > 25 µM (inactive) | IC50 [2]: > 25 µM (inactive) | IC50 [3]: > 25 µM (inactive) | IC50 [4]: > 25 µM (inactive) | CC50 [5]: > 20 µM (inactive)

Cc1cc(Br)ccc1SCC(=O)OC/C(O)=C(\C#N)c1nc2ccccc2[nH]1
IC50 (Tumor necrosis factor): > 20 µM (inactive) | IC50 [6]: > 100 µM (inactive) | IC50 [7]: > 20 µM (inactive) | EC50 [8]: 13.4 µM (active) | IC50 [9]: > 20 µM (inactive) | EC50 [10]: 27.5 µM (active) | EC50 [11]: 24.1 µM (active) | IC50 (HEK293): > 20 µM (inactive)

COC(=O)C1CCN(Cc2ccc(OCCCN3CCN(c4ccc([N+](=O)[O-])cc4)CC3)cc2)CC1
IC50 [12]: > 79.4 µM (inactive) | EC50 [13]: 0.257 µM (active) | EC50 [14]: > 30 µM (not active) | IC50 [15]: > 79.4 µM (inactive) | IC50 [16]: > 79.4 µM (inactive) | IC50 (Galanin receptor type 3): 1.33 µM (active) | EC50 (cells): > 29.9 µM (inactive)

C/C(=N\OCc1nc2ccccc2c(=O)n1/N=C/c1ccc(Cl)cc1)c1ccccc1
IC50 (SUMO E1/E2): > 100 µM (inactive)

COc1ccc(CCN2C(=O)CS/C2=N\c2ccc(C(C)C)cc2)cc1OC
IC50 [17]: > 32 µM (inactive) | EC50 (Mu-type opioid receptor): > 32 µM (inactive) | EC50 [18]: > 32 µM (inactive) | EC50 (Mucolipin-3): > 29.9 µM (not active) | EC50 [19]: 5.88 µM | EC50 [20]: 6.83 µM | EC50 (Ion channel NompC): > 29.9 µM (not active) | AC50 [21]: 4.49 µM (active) | AC50 [22]: 5.37 µM (active) | AC50 [23]: 7.07 µM (active)
